Target: human MDM2 protein (amino acids 2-188) (Homo sapiens (Human), UniProt Q00987)
Test: TR-FRET assay, p53-MDM2 Assay 2 (modified)
Type: binding
Details: TR-FRET; 0.1 nM MDM2, 0.1 nM Europium labeled streptavidin, Tecan genios Pro reader; read-out: IC50 p53-MDM2 Assay 2
Method in brief: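 IC50 values were curve-fitted from the time-resolved 665/620 nm emission ratio after 340 nm excitation. The assay combined 0.625 nM europium-streptavidin donor with 1.25 nM C-terminally biotinylated MDM2 2–188 (15 min, RT), followed by 15 min with 10 nM Cy5-labeled p53 18–26 acceptor peptide.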

human MDM2 protein (amino acids 2-188), sequence (Q00987 2-188): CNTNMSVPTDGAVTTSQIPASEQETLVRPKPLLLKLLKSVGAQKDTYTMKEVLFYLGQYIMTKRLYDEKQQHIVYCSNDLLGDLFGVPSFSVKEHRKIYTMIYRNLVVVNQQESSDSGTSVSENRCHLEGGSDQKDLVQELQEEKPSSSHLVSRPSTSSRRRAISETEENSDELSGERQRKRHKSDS

IC50 [nM] | Structure (SMILES)
308 | COc1ncc(-c2cc3c(n2C(C)C)[C@@H](c2ccc(Cl)cc2C)N(c2cc(Cl)c(=O)n(C)c2)C3=O)c(OC)n1 [Example 161, (R)-5-(5-Chloro-1-methyl-6-oxo-1,6-dihydro-pyridin-3-yl)-6-(4-chloro-2-methyl-phenyl)-2-(2,4-dimethoxy-pyrimidin-5-yl)-1-isopropyl-5,6-dihydro-1H-pyrrolo[3,4-b]pyrrol-4-one]
49 | COc1ncc(-c2cc3c(n2C(C)C)[C@](C)(c2ccc(Cl)cc2)N(c2cc(Cl)c(=O)n(C)c2)C3=O)c(OC)n1 [Example 162, (S)-5-(5-Chloro-1-methyl-6-oxo-1,6-dihydro-pyridin-3-yl)-6-(4-chloro-phenyl)-2-(2,4-dimethoxy-pyrimidin-5-yl)-1-isopropyl-6-methyl-5,6-dihydro-1H-pyrrolo[3,4-b]pyrrol-4-one]
42.7 | COc1ncc(-c2cc3c(n2C(C)C)[C@@](C)(c2ccc(Cl)cc2)N(c2cc(Cl)c(=O)n(C)c2)C3=O)c(OC)n1 [Example 163, (R)-5-(5-Chloro-1-methyl-6-oxo-1,6-dihydro-pyridin-3-yl)-6-(4-chloro-phenyl)-2-(2,4-dimethoxy-pyrimidin-5-yl)-1-isopropyl-6-methyl-5,6-dihydro-1H-pyrrolo[3,4-b]pyrrol-4-one]
0.121 | COc1nc(N(C)C)ncc1-c1c(C#N)c2c(n1C(C)C)C(c1ccc(Cl)cc1)N(c1cc(Cl)c(=O)n(C)c1)C2=O (stereo not drawn) [Example 164, 5-(5-Chloro-1-methyl-6-oxo-1,6-dihydro-pyridin-3-yl)-6-(4-chloro-phenyl)-2-(2-dimethylamino-4-methoxy-pyrimidin-5-yl)-1-isopropyl-4-oxo-1,4,5,6-tetrahydro-pyrrolo[3,4-b]pyrrole-3-carbonitrile]
0.578 | CNc1ncc(-c2cc3c(n2C(C)C)[C@H](c2ccc(C#N)cc2)N(c2cc(Cl)cn(C)c2=O)C3=O)c(OC)n1 [Example 165, 4-[(S)-5-(5-Chloro-1-methyl-2-oxo-1,2-dihydro-pyridin-3-yl)-1-isopropyl-2-(4-methoxy-2-methylamino-pyrimidin-5-yl)-4-oxo-1,4,5,6-tetrahydro-pyrrolo[3,4-b]pyrrol-6-yl]-benzonitrile]
293 | CNc1ncc(-c2cc3c(n2C(C)C)[C@@H](c2ccc(C#N)cc2)N(c2cc(Cl)cn(C)c2=O)C3=O)c(OC)n1 [Example 166, 4-[(R)-5-(5-Chloro-1-methyl-2-oxo-1,2-dihydro-pyridin-3-yl)-1-isopropyl-2-(4-methoxy-2-methylamino-pyrimidin-5-yl)-4-oxo-1,4,5,6-tetrahydro-pyrrolo[3,4-b]pyrrol-6-yl]-benzonitrile]
107 | COc1nc(N(C)C)ncc1-c1cc2c(n1C(C)C)[C@@H](c1ccc(C#N)cc1)N(c1cc(Cl)c[nH]c1=O)C2=O [Example 168, 4-[(R)-5-(5-Chloro-2-oxo-1,2-dihydro-pyridin-3-yl)-2-(2-dimethylamino-4-methoxy-pyrimidin-5-yl)-1-isopropyl-4-oxo-1,4,5,6-tetrahydro-pyrrolo[3,4-b]pyrrol-6-yl]-benzonitrile]
0.357 | COc1nc(N(C)C)ncc1-c1cc2c(n1C(C)C)[C@H](c1ccc(C#N)cc1)N(c1ccc(F)c(Cl)c1)C2=O [Example 169, 4-[(S)-5-(3-Chloro-4-fluoro-phenyl)-2-(2-dimethylamino-4-methoxy-pyrimidin-5-yl)-1-isopropyl-4-oxo-1,4,5,6-tetrahydro-pyrrolo[3,4-b]pyrrol-6-yl]-benzonitrile]
31.3 | COc1nc(N(C)C)ncc1-c1cc2c(n1C(C)C)[C@@H](c1ccc(C#N)cc1)N(c1ccc(F)c(Cl)c1)C2=O [Example 170, 4-[(R)-5-(3-Chloro-4-fluoro-phenyl)-2-(2-dimethylamino-4-methoxy-pyrimidin-5-yl)-1-isopropyl-4-oxo-1,4,5,6-tetrahydro-pyrrolo[3,4-b]pyrrol-6-yl]-benzonitrile]
